According to US9475817B2 (BRISTOL-MYERS SQUIBB COMPANY, priority 2012, dated 2016):

Legend:
CK1ε = CK1ε (Homo sapiens (Human), UniProt P49674); experiment: CK1ε kinase assay (Caliper LabChip, fluoresceinated peptide substrate); type: biochemical; settings: 200 pM CK1ε, 50 μM ATP, 1.5 μM peptide substrate, 22 hours room temperature
Method: (§1) CK1ε and CK1δ Kinase Assays
(§2) The kinase assay was performed in V-bottom 384-well plates. […] The reaction was incubated at room temperature for 22 hours and terminated by adding 45 μl of 35 mM EDTA to each sample. […] Compounds were dissolved at 10 mM in dimethylsulfoxide (DMSO) and evaluated at eleven concentrations. IC50 values were derived by non-linear regression analysis.

CK1δ = CK1δ (Homo sapiens (Human), UniProt P48730); experiment: CK1δ kinase assay (Caliper LabChip, fluoresceinated peptide substrate); type: biochemical; settings: 200 pM CK1δ, 50 μM ATP, 1.5 μM peptide substrate, 22 hours room temperature
CK1δ, sequence (P48730 whole entry): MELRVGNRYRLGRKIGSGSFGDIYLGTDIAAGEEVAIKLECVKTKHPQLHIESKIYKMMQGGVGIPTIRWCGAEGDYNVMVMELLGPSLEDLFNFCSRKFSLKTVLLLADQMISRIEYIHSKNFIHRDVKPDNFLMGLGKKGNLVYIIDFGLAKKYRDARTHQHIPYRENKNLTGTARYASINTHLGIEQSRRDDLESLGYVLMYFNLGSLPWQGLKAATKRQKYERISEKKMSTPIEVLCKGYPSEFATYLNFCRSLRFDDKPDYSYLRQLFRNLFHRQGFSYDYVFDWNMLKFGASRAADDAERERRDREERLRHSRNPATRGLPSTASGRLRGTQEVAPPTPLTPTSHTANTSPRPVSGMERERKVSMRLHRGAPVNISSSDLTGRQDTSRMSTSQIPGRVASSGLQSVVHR
Method: as §1, §2

CK1ε, sequence (P49674 whole entry): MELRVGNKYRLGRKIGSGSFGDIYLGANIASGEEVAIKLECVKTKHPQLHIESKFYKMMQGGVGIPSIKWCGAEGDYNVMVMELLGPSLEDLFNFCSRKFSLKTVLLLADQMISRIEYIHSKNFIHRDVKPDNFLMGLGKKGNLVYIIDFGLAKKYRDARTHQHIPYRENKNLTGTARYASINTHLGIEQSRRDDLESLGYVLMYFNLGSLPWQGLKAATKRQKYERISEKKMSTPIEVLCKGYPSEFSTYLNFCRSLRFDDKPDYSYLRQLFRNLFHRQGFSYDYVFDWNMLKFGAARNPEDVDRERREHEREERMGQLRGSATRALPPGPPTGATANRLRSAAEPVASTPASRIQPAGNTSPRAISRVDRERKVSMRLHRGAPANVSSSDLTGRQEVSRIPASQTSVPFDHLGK

Row | Structure (SMILES) | IC50 (CK1ε) | IC50 (CK1δ)
1 | Cn1cc(-c2ccc3nc(NC(=O)c4cc(-c5ccc(F)cc5)ncn4)cn3n2)c(-c2ccc(F)cc2)n1 [Compound 33, 6-(4-fluorophenyl)-N-(6-(3-(4-fluorophenyl)-1-methyl-1H-pyrazol-4-yl)imidazo[1,2-b]pyridazin-2-yl)pyrimidine-4-carboxamide] | 454 nM | 30.4 nM
2 | Cc1c[nH]nc1C(=O)Nc1cn2nc(-c3cn(C)nc3-c3ccc(F)cc3)ccc2n1 [Compound 34, N-(6-(3-(4-fluorophenyl)-1-methyl-1H-pyrazol-4-yl)imidazo[1,2-b]pyridazin-2-yl)-4-methyl-1H-pyrazol-3-carboxamide] | 18.7 nM | 3.6 nM
3 | Cn1cc(-c2ccc3nc(NC(=O)c4ccncc4F)cn3n2)c(-c2ccc(F)cc2)n1 [Compound 35, 3-fluoro-N-(6-(3-(4-fluorophenyl)-1-methyl-1H-pyrazol-4-yl)imidazo[1,2-b]pyridazin-2-yl)isonicotinamide] | 9.1 nM | 2.8 nM
4 | Cn1cc(-c2ccc3nc(NC(=O)c4ncccc4Cl)cn3n2)c(-c2ccc(F)cc2)n1 [Compound 36, 3-chloro-N-(6-(3-(4-fluorophenyl)-1-methyl-1H-pyrazol-4-yl)imidazo[1,2-b]pyridazin-2-yl)picolinamide] | 13.7 nM | 7.3 nM
5 | Cn1cc(-c2ccc3nc(NC(=O)c4nccs4)cn3n2)c(-c2ccc(F)cc2)n1 [Compound 37, N-(6-(3-(4-fluorophenyl)-1-methyl-1H-pyrazol-4-yl)imidazo[1,2-b]pyridazin-2-yl)thiazole-2-carboxamide] | 116 nM | 30.5 nM
6 | Cn1cc(-c2ccc3nc(NC(=O)c4ccncn4)cn3n2)c(-c2ccc(F)cc2)n1 [Compound 38, N-(6-(3-(4-fluorophenyl)-1-methyl-1H-pyrazol-4-yl)imidazo[1,2-b]pyridazin-2-yl)pyrimidine-4-carboxamide] | 43.4 nM | 10.7 nM
7 | Cn1cc(-c2ccc3nc(NC(=O)C4CCOCC4)cn3n2)c(-c2ccc(F)cc2)n1 [Compound 40, N-(6-(3-(4-fluorophenyl)-1-methyl-1H-pyrazol-4-yl)imidazo[1,2-b]pyridazin-2-yl)tetrahydro-2H-pyran-4-carboxamide] | 18 nM | 5.4 nM
8 | Cn1cc(-c2ccc3nc(NC(=O)c4ccc(CO)cc4F)cn3n2)c(-c2ccc(F)cc2)n1 [Compound 41, 2-fluoro-N-(6-(3-(4-fluorophenyl)-1-methyl-1H-pyrazol-4-yl)imidazo[1,2-b]pyridazin-2-yl)-4-(hydroxymethyl)benzamide] | 11.5 nM | 4 nM
9 | Cn1cc(-c2ccc3nc(NC(=O)c4ccc(Br)cc4F)cn3n2)c(-c2ccc(F)cc2)n1 [Compound 42, 4-bromo-2-fluoro-N-(6-(3-(4-fluorophenyl)-1-methyl-1H-pyrazol-4-yl)imidazo[1,2-b]pyridazin-2-yl)benzamide] | 13.7 nM | 2.3 nM
10 | Cn1cc(-c2ccc3nc(NC(=O)c4cc(F)cc(F)c4)cn3n2)c(-c2ccc(F)cc2)n1 [Compound 43, 3,5-difluoro-N-(6-(3-(4-fluorophenyl)-1-methyl-1H-pyrazol-4-yl)imidazo[1,2-b]pyridazin-2-yl)benzamide] | 15.8 nM | 4.8 nM
11 | COc1ccc(F)c(C(=O)Nc2cn3nc(-c4cn(C)nc4-c4ccc(F)cc4)ccc3n2)c1 [Compound 44, 2-fluoro-N-(6-(3-(4-fluorophenyl)-1-methyl-1H-pyrazol-4-yl)imidazo[1,2-b]pyridazin-2-yl)-5-methoxybenzamide] | 21.2 nM | 5.6 nM
12 | COc1cc(F)cc(C(=O)Nc2cn3nc(-c4cn(C)nc4-c4ccc(F)cc4)ccc3n2)c1 [Compound 45, 3-fluoro-N-(6-(3-(4-fluorophenyl)-1-methyl-1H-pyrazol-4-yl)imidazo[1,2-b]pyridazin-2-yl)-5-methoxybenzamide] | 6.8 nM | 1.9 nM
13 | Cn1cc(-c2ccc3nc(NC(=O)c4cc(Cl)ccc4F)cn3n2)c(-c2ccc(F)cc2)n1 [Compound 47, 5-chloro-2-fluoro-N-(6-(3-(4-fluorophenyl)-1-methyl-1H-pyrazol-4-yl)imidazo[1,2-b]pyridazin-2-yl)benzamide] | 19.9 nM | 5.2 nM
14 | Cn1cc(-c2ccc3nc(NC(=O)c4ccc(C#N)c(F)c4)cn3n2)c(-c2ccc(F)cc2)n1 [Compound 48, 4-cyano-3-fluoro-N-(6-(3-(4-fluorophenyl)-1-methyl-1H-pyrazol-4-yl)imidazo[1,2-b]pyridazin-2-yl)benzamide] | 23.4 nM | 5.7 nM
15 | COc1cc(C(=O)Nc2cn3nc(-c4cn(C)nc4-c4ccc(F)cc4)ccc3n2)ccn1 [Compound 49, N-(6-(3-(4-fluorophenyl)-1-methyl-1H-pyrazol-4-yl)imidazo[1,2-b]pyridazin-2-yl)-2-methoxyisonicotinamide] | 13.6 nM | 6.1 nM
16 | Cn1cc(-c2ccc3nc(NC(=O)c4cc(F)ccc4F)cn3n2)c(-c2ccc(F)cc2)n1 [Compound 51, 2,5-difluoro-N-(6-(3-(4-fluorophenyl)-1-methyl-1H-pyrazol-4-yl)imidazo[1,2-b]pyridazin-2-yl)benzamide] | 22.9 nM | 6.3 nM
17 | Cc1cc(C(=O)Nc2cn3nc(-c4cn(C)nc4-c4ccc(F)cc4)ccc3n2)ccn1 [Compound 52, N-(6-(3-(4-fluorophenyl)-1-methyl-1H-pyrazol-4-yl)imidazo[1,2-b]pyridazin-2-yl)-2-methylisonicotinamide] | 17.8 nM | 7.6 nM
18 | Cn1cc(-c2ccc3nc(NC(=O)c4ccc(C#N)nc4)cn3n2)c(-c2ccc(F)cc2)n1 [Compound 53, 6-cyano-N-(6-(3-(4-fluorophenyl)-1-methyl-1H-pyrazol-4-yl)imidazo[1,2-b]pyridazin-2-yl)nicotinamide] | 21.4 nM | 5.8 nM
19 | Cn1cc(-c2ccc3nc(NC(=O)c4ccnc(F)c4)cn3n2)c(-c2ccc(F)cc2)n1 [Compound 54, 2-fluoro-N-(6-(3-(4-fluorophenyl)-1-methyl-1H-pyrazol-4-yl)imidazo[1,2-b]pyridazin-2-yl)isonicotinamide] | 14 nM | 4.5 nM
20 | Cn1cc(-c2ccc3nc(NC(=O)c4cc(C#N)ccc4F)cn3n2)c(-c2ccc(F)cc2)n1 [Compound 55, 5-cyano-2-fluoro-N-(6-(3-(4-fluorophenyl)-1-methyl-1H-pyrazol-4-yl)imidazo[1,2-b]pyridazin-2-yl)benzamide] | 12.1 nM | 4.1 nM
21 | Cn1cc(-c2ccc3nc(NC(=O)c4ccc(F)c(C#N)c4)cn3n2)c(-c2ccc(F)cc2)n1 [Compound 56, 3-cyano-4-fluoro-N-(6-(3-(4-fluorophenyl)-1-methyl-1H-pyrazol-4-yl)imidazo[1,2-b]pyridazin-2-yl)benzamide] | 44.9 nM | 14.4 nM
22 | Cn1cc(-c2ccc3nc(NC(=O)c4cc(F)cc(C#N)c4)cn3n2)c(-c2ccc(F)cc2)n1 [Compound 57, 3-cyano-5-fluoro-N-(6-(3-(4-fluorophenyl)-1-methyl-1H-pyrazol-4-yl)imidazo[1,2-b]pyridazin-2-yl)benzamide] | 22.3 nM | 8.9 nM
23 | Cn1cc(-c2ccc3nc(NC(=O)c4ccc(OC(F)F)cc4F)cn3n2)c(-c2ccc(F)cc2)n1 [Compound 58, 4-(difluoromethoxy)-2-fluoro-N-(6-(3-(4-fluorophenyl)-1-methyl-1H-pyrazol-4-yl)imidazo[1,2-b]pyridazin-2-yl)benzamide] | 40.9 nM | 6.9 nM
24 | COc1cccc(C(=O)Nc2cn3nc(-c4cn(C)nc4-c4ccc(F)cc4)ccc3n2)c1F [Compound 59, 2-fluoro-N-(6-(3-(4-fluorophenyl)-1-methyl-1H-pyrazol-4-yl)imidazo[1,2-b]pyridazin-2-yl)-3-methoxybenzamide] | 22.1 nM | 7.8 nM
25 | Cn1cc(-c2ccc3nc(NC(=O)c4cnn(C)c4Cl)cn3n2)c(-c2ccc(F)cc2)n1 [Compound 60, 5-chloro-N-(6-(3-(4-fluorophenyl)-1-methyl-1H-pyrazol-4-yl)imidazo[1,2-b]pyridazin-2-yl)-1-methyl-1H-pyrazole-4-carboxamide] | 13.1 nM | 5.5 nM
26 | COc1c(F)cc(C(=O)Nc2cn3nc(-c4cn(C)nc4-c4ccc(F)cc4)ccc3n2)cc1F [Compound 61, 3,5-difluoro-N-(6-(3-(4-fluorophenyl)-1-methyl-1H-pyrazol-4-yl)imidazo[1,2-b]pyridazin-2-yl)-4-methoxybenzamide] | 18.7 nM | 5.7 nM
27 | Cn1cc(-c2ccc3nc(NC(=O)c4ccc(F)cc4)cn3n2)c(-c2ccc(F)cc2)n1 [Compound 62, 4-fluoro-N-(6-(3-(4-fluorophenyl)-1-methyl-1H-pyrazol-4-yl)imidazo[1,2-b]pyridazin-2-yl)benzamide] | 28.1 nM | 7.2 nM
28 | Cn1cc(-c2ccc3nc(NC(=O)c4cnccc4C(F)(F)F)cn3n2)c(-c2ccc(F)cc2)n1 [Compound 63, N-(6-(3-(4-fluorophenyl)-1-methyl-1H-pyrazol-4-yl)imidazo[1,2-b]pyridazin-2-yl)-4-(trifluoromethyl) nicotinamide] | 34.8 nM | 8 nM
29 | COc1ccncc1C(=O)Nc1cn2nc(-c3cn(C)nc3-c3ccc(F)cc3)ccc2n1 [Compound 64, N-(6-(3-(4-fluorophenyl)-1-methyl-1H-pyrazol-4-yl)imidazo[1,2-b]pyridazin-2-yl)-4-methoxynicotinamide] | 38.5 nM | 7.1 nM
30 | Cn1cc(-c2ccc3nc(NC(=O)c4cccc(C(F)(F)F)n4)cn3n2)c(-c2ccc(F)cc2)n1 [Compound 65, N-(6-(3-(4-fluorophenyl)-1-methyl-1H-pyrazol-4-yl)imidazo[1,2-b]pyridazin-2-yl)-6-(trifluoromethyl) picolinamide] | 158 nM | 24.7 nM
